This is an account of results in patent publication US20060148858A1, “1, 2-Azole derivatives with hypoglycemic and hypolipidemic activity” (priority 2002, published 2006).

One may read the melting point as the temperature, or range, at which the solid turns liquid.

The molecule `CCOc1nn(-c2ccc(C(F)(F)F)cn2)cc1CCCOc1ccc(OC)cc1CC(=O)O` [Example 132, [2-(3-{3-ethoxy-1-[5-(trifluoromethyl)-2-pyridyl]-1H-pyrazol-4-yl}propoxy)-5-methoxyphenyl]acetic acid] came in with a melting point of 138 to 139 °C.

On to `CCOc1nn(-c2ccc(C(F)(F)F)cn2)cc1CCOc1cccc(OC(C)(C)C(=O)O)c1` [Example 74, 2-[3-(2-{3-ethoxy-1-[5-(trifluoromethyl)-2-pyridinyl]-1H-pyrazol-4-yl}ethoxy)phenoxy]-2-methylpropanoic acid], for which the melting point lay in the range of 89 to 90 °C.

In turn, `CCOc1nn(-c2ccc(C(F)(F)F)cn2)cc1CCCOc1ccc(CCC(=O)O)cc1O` [Example 161, 3-[4-(3-{3-ethoxy-1-[5-(trifluoromethyl)-2-pyridyl]-1H-pyrazol-4-yl}propoxy)-3-hydroxyphenyl]propanoic acid] showed a melting point of 124 to 125 °C.

In the case of `CCCc1nn(-c2ccc(C(F)(F)F)cn2)cc1CCCOc1c(CC(=O)O)cnn1C` [Example 321, [1-methyl-5-(3-{3-propyl-1-[5-(trifluoromethyl)-2-pyridinyl]-1H-pyrazol-4-yl}propoxy)-1H-pyrazol-4-yl]acetic acid], the melting point lay within 136 to 138 °C.

Turning to `Cn1nc(OCCCc2cc(-c3ccc(C(F)(F)F)cc3)no2)cc1C(=O)O` [Example 7, 1-methyl-3-(3-{3-[4-(trifluoromethyl)phenyl]-5-isoxazolyl}propoxy)-1H-pyrazole-5-carboxylic acid], the melting point was 162 to 163 °C.

In turn, `COc1cccc(CC(=O)O)c1OCCCc1cn(-c2nnc(C(F)(F)F)s2)nc1C(C)C` [Example 344, [2-(3-{3-isopropyl-1-[5-(trifluoromethyl)-1,3,4-thiadiazol-2-yl]-1H-pyrazol-4-yl}propoxy)-3-methoxyphenyl]acetic acid] showed a melting point of 114 to 115 °C.

In the case of `CC(C)(Oc1cccc(OCCCc2cn(-c3ccc(C(F)(F)F)cn3)nc2-c2ccccc2)c1)C(=O)O` [Example 133, 2-methyl-2-[3-(3-{3-phenyl-1-[5-(trifluoromethyl)-2-pyridyl]-1H-pyrazol-4-yl}propoxy)phenoxy]propionic acid], the melting point was in the range of 141 to 142 °C.

Take `CC(C)c1nn(-c2ccc(C(F)(F)F)cn2)cc1CCCCOc1cccc(OC(C)(C)C(=O)O)c1` [Example 54, 2-[3-(4-{3-isopropyl-1-[5-(trifluoromethyl)-2-pyridinyl]-1H-pyrazol-4-yl}butoxy)phenoxy]-2-methylpropanoic acid]: the melting point was 81 to 82 °C.

As to `CC(C)c1nn(-c2ccc(C(F)(F)F)cn2)cc1CCCOc1cc(CCC(=O)O)n(C)n1` [Example 25, 3-[3-(3-{3-isopropyl-1-[5-(trifluoromethyl)-2-pyridyl]-1H-pyrazol-4-yl}propoxy)-1-methyl-1H-pyrazol-5-yl]propionic acid], the melting point fell in the range of 131 to 132 °C.

With `O=C(O)Cc1ccc(OCCCCc2cc(-c3ccc(C(F)(F)F)cc3)no2)cc1` [Example 13, [4-(4-{3-[4-(trifluoromethyl)phenyl]-5-isoxazolyl}butoxy)phenyl]acetic acid], the melting point lay within 125 to 126 °C.

As for `O=C(O)c1cc(OCCCc2cc(-c3ccc(C(F)(F)F)cc3)no2)nn1-c1ccccc1` [Example 8, 1-phenyl-3-(3-{3-[4-(trifluoromethyl)phenyl]-5-isoxazolyl}propoxy)-1H-pyrazole-5-carboxylic acid], the melting point lay in the range of 145 to 146 °C.

`CCOc1nn(-c2ccc(C(F)(F)F)cn2)cc1CCCOc1cc(CC(=O)O)n(C)n1` [Example 119, [3-(3-{3-ethoxy-1-[5-(trifluoromethyl)-2-pyridinyl]-1H-pyrazol-4-yl}propoxy)-1-methyl-1H-pyrazol-5-yl]acetic acid] had a melting point of 151 to 152 °C.

`CCC(=O)Nc1ccc(-n2cc(CCCOc3c(CC(=O)O)cccc3OC)c(C(C)C)n2)nc1` [Example 266, (3-methoxy-2-{3-[3-isopropyl-1-(5-propanoylamino-2-pyridyl)-1H-pyrazol-4-yl]propoxy}phenyl)acetic acid] registered a melting point of 147 to 148 °C.

`CCc1cnc(-n2cc(CCCOc3c(CC(=O)O)cccc3OC)c(C(C)C)n2)nc1` [Example 276, (2-{3-[1-(5-ethylpyrimidin-2-yl)-3-isopropyl-1H-pyrazol-4-yl]propoxy}-3-methoxyphenyl)acetic acid] returned a melting point of 103 to 104 °C.

Molecule `O=C(O)Cc1ccc(OCCCc2cc(-c3ccc(C(F)(F)F)cc3)no2)cc1` [Example 1, [4-(3-{3-[4-(trifluoromethyl)phenyl]-5-isoxazolyl}propoxy)phenyl]acetic acid] showed a melting point of 127 to 128 °C.

With `CCCc1nn(-c2ccc(C(F)(F)F)cn2)cc1CCCOc1ccc(OC)c(CC(=O)O)c1` [Example 97, [2-methoxy-5-(3-{3-propyl-1-[5-(trifluoromethyl)-2-pyridinyl]-1H-pyrazol-4-yl}propoxy)phenyl]acetic acid], the melting point lay within 135 to 136 °C.

With `COc1cc(OCCCCc2cn(-c3ccc(C(F)(F)F)cn3)nc2C(C)C)ccc1CCC(=O)O` [Example 69, 3-[4-(4-{3-isopropyl-1-[5-(trifluoromethyl)-2-pyridinyl]-1H-pyrazol-4-yl}butoxy)-2-methoxyphenyl]propanoic acid], the melting point lay within 125 to 126 °C.

Turning to `CC(C)(Oc1ccc(OCCCCc2cc(-c3ccc(C(F)(F)F)cc3)no2)cc1)C(=O)O` [Example 15, 2-methyl-2-[4-(4-{3-[4-(trifluoromethyl)phenyl]-5-isoxazolyl}butoxy)phenoxy]propionic acid], the melting point fell in the range of 103 to 104 °C.

As to `CCCc1nn(-c2ccc(C(F)(F)F)cn2)cc1CCCOc1nn(C)cc1CC(=O)O` [Example 87, [1-methyl-3-(3-{3-propyl-1-[5-(trifluoromethyl)-2-pyridyl]-1H-pyrazol-4-yl}propoxy)-1H-pyrazol-4-yl]acetic acid], the melting point was in the range of 119 to 120 °C.

In the case of `COc1cccc(CC(=O)O)c1OCCCc1cn(-c2ccc(NC(=O)C(C)C)cn2)nc1C(C)C` [Example 268, [3-methoxy-2-(3-{3-isopropyl-1-[5-(2-methylpropanoylamino)-2-pyridyl]-1H-pyrazol-4-yl}propoxy)phenyl]acetic acid], the melting point was 122 to 123 °C.

`CC(C)c1nn(-c2ccc(C(F)(F)F)cn2)cc1CCCCOc1nn(-c2ccccc2)cc1CC(=O)O` [Example 68, [3-(4-{3-isopropyl-1-[5-(trifluoromethyl)-2-pyridinyl]-1H-pyrazol-4-yl}butoxy)-1-phenyl-1H-pyrazol-4-yl]acetic acid] returned a melting point of 119 to 120 °C.

`CCCOc1cc(CCC(=O)O)ccc1OCCCc1cn(-c2ccc(C(F)(F)F)cn2)nc1OCC` [Example 163, 3-[4-(3-{3-ethoxy-1-[5-(trifluoromethyl)-2-pyridyl]-1H-pyrazol-4-yl}propoxy)-3-propoxyphenyl]propanoic acid] registered a melting point of 106 to 107 °C.

For `Cc1nn(-c2ccc(C(F)(F)F)cn2)cc1COc1ccc(OCC(=O)O)cc1` [Example 10, (4-{3-methyl-1-[5-(trifluoromethyl)-2-pyridyl]-1H-pyrazol-4-ylmethoxy}phenoxy)acetic acid], the melting point was 138 to 139 °C.

`CCCc1nn(-c2ccc(C(F)(F)F)cn2)cc1CCCCOc1ccc(CCC(=O)O)c(C)c1` [Example 64, 3-[2-methyl-4-(4-{3-propyl-1-[5-(trifluoromethyl)-2-pyridinyl]-1H-pyrazol-4-yl}butoxy)phenyl]propanoic acid] yielded a melting point of 105 to 107 °C.

Molecule `COc1cccc(CC(=O)O)c1OCCCc1cn(-c2ccc(C(F)(F)F)nn2)nc1C(C)(C)C` [Example 366, [2-(3-{3-tert-butyl-1-[6-(trifluoromethyl)pyridazin-3-yl]-1H-pyrazol-4-yl}propoxy)-3-methoxyphenyl]acetic acid] yielded a melting point of 131 to 132 °C.

The molecule `CCCc1nn(-c2ccc(C(F)(F)F)cn2)cc1CCCOc1ccc(CC(=O)O)cc1OC` [Example 79, [3-methoxy-4-(3-{3-propyl-1-[5-(trifluoromethyl)-2-pyridyl]-1H-pyrazol-4-yl}propoxy)phenyl]acetic acid] had a melting point of 121 to 122 °C.

As for `CCOc1cc(OCCCc2cn(-c3cc(C(F)(F)F)ccn3)nc2OCC)ccc1CCC(=O)OC` [Example 285, methyl 3-[2-ethoxy-4-(3-{3-ethoxy-1-[4-(trifluoromethyl)-2-pyridinyl]-1H-pyrazol-4-yl}propoxy)phenyl]propanoate], the melting point lay in the range of 79 to 81 °C.

Molecule `COc1cccc(CC(=O)O)c1OCCCc1cn(-c2ccc(C(F)(F)F)cn2)nc1C(C)(C)C` [Example 345, [2-(3-{3-tert-butyl-1-[5-(trifluoromethyl)-2-pyridinyl]-1H-pyrazol-4-yl}propoxy)-3-methoxyphenyl]acetic acid] came in with a melting point of 94 to 95 °C.

Consider `CCc1cnn(CC(=O)O)c1OCCCc1cn(-c2ccc(C(F)(F)F)cn2)nc1C(CC)CC` [Example 330, [4-ethyl-5-(3-{3-(1-ethylpropyl)-1-[5-(trifluoromethyl)-2-pyridinyl]-1H-pyrazol-4-yl}propoxy)-1H-pyrazol-1-yl]acetic acid], for which the melting point lay within 124 to 125 °C.

Regarding `CCOc1cc(OCCCc2cn(-c3ccccn3)nc2OCC)ccc1CCC(=O)O` [Example 108, 3-(2-ethoxy-4-{3-[3-ethoxy-1-(2-pyridinyl)-1H-pyrazol-4-yl]propoxy}phenyl)propanoic acid], the melting point fell in the range of 110 to 111 °C.

In turn, `CCc1cccc(CC(=O)O)c1OCCCc1cn(-c2ccc(Br)cn2)nc1C(CC)CC` [Example 355, (2-{3-[1-(5-bromo-2-pyridinyl)-3-(1-ethylpropyl)-1H-pyrazol-4-yl]propoxy}-3-ethylphenyl)acetic acid] returned a melting point of 123 °C.

As for `COc1cccc(CC(=O)O)c1OCCCc1cn(-c2ccccn2)nc1C(C)C` [Example 312, (2-{3-[3-isopropyl-1-(2-pyridinyl)-1H-pyrazol-4-yl]propoxy}-3-methoxyphenyl)acetic acid], the melting point is 102 to 104 °C.
